Measured values taken from PubChem BioAssay (NCI).
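At the GI50, growth is halved. Definition used: TGI = concentration required for complete inhibition of growth.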

How the values were obtained:
Experiment in all cases: NCI-60 cell line screen, 384-well format
[1] = system: LOX IMVI melanoma
[2] = system: CAKI-1 renal
[3] = system: OVCAR-3 ovarian
[4] = system: U251 glioblastoma
[5] = system: UACC-257 melanoma
[6] = system: SF-539 CNS
[7] = system: TK-10 renal
[8] = system: NCI-H322M lung
[9] = system: T-47D breast
[10] = system: MOLT-4 leukemia
[11] = system: NCI-H522 lung
[12] = system: HCC-2998 colon
[13] = system: MCF7 breast
[14] = system: HL-60(TB) leukemia
[15] = system: UACC-62 melanoma
[16] = system: HOP-62 NSCLC
[17] = system: RXF 393 renal
[18] = system: SK-OV-3 ovarian
[19] = system: HCT-15 colon
[20] = system: NCI/ADR-RES ovarian
[21] = system: SNB-19 CNS
[22] = system: OVCAR-5 ovarian
[23] = system: SF-295 CNS
[24] = system: NCI-H226 lung
[25] = system: HCT-116 colon
[26] = system: MDA-MB-468 breast
[27] = system: HOP-92 NSCLC
[28] = system: COLO 205 colon
[29] = system: HT29 colon
[30] = system: M14 melanoma
[31] = system: KM12 colon
[32] = system: PC-3 prostate
[33] = system: IGROV1 ovarian
[34] = system: NCI-H23 lung
[35] = system: SR leukemia
[36] = system: DU-145 prostate
[37] = system: BT-549 breast
[38] = system: EKVX NSCLC
[39] = system: RPMI-8226 leukemia
[40] = system: MDA-MB-435 melanoma
[41] = system: OVCAR-4 ovarian
[42] = system: K-562 leukemia
[43] = system: CCRF-CEM leukemia
[44] = system: A549 NSCLC
[45] = system: SK-MEL-2 melanoma
[46] = system: SK-MEL-28 melanoma
[47] = system: MDA-MB-231 breast

O=C(Cc1ccccc1)Nc1nnc(CCSCCc2nnc(NC(=O)Cc3ccccc3)s2)s1
GI50 [1]: 3.99 µM
TGI [1]: 23.1 µM
GI50 [2]: 8.03 µM
TGI [2]: > 41 µM
GI50 [3]: 7.24 µM
TGI [3]: > 60.5 µM
GI50 [4]: 3.13 µM
TGI [4]: 21.4 µM
GI50 [5]: 13.5 µM
TGI [5]: > 76.6 µM
GI50 [6]: 3.16 µM
TGI [6]: 18.2 µM
GI50 [7]: 18 µM
TGI [7]: 62.2 µM
GI50 [8]: 0.393 µM
TGI [8]: 2.21 µM
GI50 [9]: 27.3 µM
TGI [9]: > 88.3 µM
GI50 [10]: > 39.2 µM
TGI [10]: > 100 µM
GI50 [11]: 2.92 µM
TGI [11]: 15.1 µM
GI50 [12]: 39.7 µM
TGI [12]: > 100 µM
GI50 [13]: > 28.5 µM
TGI [13]: > 75.1 µM
GI50 [14]: 28.3 µM
TGI [14]: > 100 µM
GI50 [15]: 8.39 µM
TGI [15]: 31.1 µM
GI50 [16]: 2.92 µM
TGI [16]: 11.9 µM
GI50 [17]: 1.42 µM
TGI [17]: 4.88 µM
GI50 [18]: 15.5 µM
TGI [18]: 40.4 µM
GI50 [19]: > 100 µM
TGI [19]: > 100 µM
GI50 [20]: > 100 µM
TGI [20]: > 100 µM
GI50 [21]: 19.4 µM
TGI [21]: 48 µM
GI50 [22]: 16.7 µM
TGI [22]: > 100 µM
GI50 [23]: 9.57 µM
TGI [23]: 26.4 µM
GI50 [24]: 7.56 µM
TGI [24]: 31.3 µM
GI50 [25]: > 72.6 µM
TGI [25]: > 100 µM
GI50 [26]: 29.7 µM
TGI [26]: > 83.2 µM
GI50 [27]: 3.05 µM
TGI [27]: 14.8 µM
GI50 [28]: > 100 µM
TGI [28]: > 100 µM
GI50 [29]: > 100 µM
TGI [29]: > 100 µM
GI50 [30]: > 43.4 µM
TGI [30]: > 88.8 µM
GI50 [31]: 1.94 µM
TGI [31]: > 100 µM
GI50 [32]: 13.4 µM
TGI [32]: 35 µM
GI50 [33]: 29.1 µM
TGI [33]: > 94 µM
GI50 [34]: 16.1 µM
TGI [34]: 39.7 µM
GI50 [35]: 0.544 µM
TGI [35]: > 100 µM
GI50 [36]: 14 µM
TGI [36]: > 100 µM
GI50 [37]: 9.85 µM
TGI [37]: 30.5 µM
GI50 [38]: 17.2 µM
TGI [38]: > 92.9 µM
GI50 [39]: 1.42 µM
GI50 [40]: 30 µM
TGI [40]: > 100 µM
GI50 [41]: 13.2 µM
TGI [41]: 40.5 µM
GI50 [42]: 10.1 µM
TGI [42]: > 100 µM
GI50 [43]: 11.6 µM
TGI [43]: > 100 µM
GI50 [44]: 1.06 µM
TGI [44]: 5.54 µM
GI50 [45]: 3.07 µM
TGI [45]: 10.7 µM
GI50 [46]: 21.7 µM
TGI [46]: > 61.2 µM
GI50 [47]: 3.07 µM
TGI [47]: 28.9 µM
